Measured values from patent US20210395239A1 (Hoffmann-La Roche Inc., priority 2018, published 2021).

Biological target: T1, human TLR7 (Homo sapiens, UniProt Q9NYK1)
T1 construct: host or cells: HEK293 (HEK-Blue hTLR7)
T1 sequence (Q9NYK1 27-1049): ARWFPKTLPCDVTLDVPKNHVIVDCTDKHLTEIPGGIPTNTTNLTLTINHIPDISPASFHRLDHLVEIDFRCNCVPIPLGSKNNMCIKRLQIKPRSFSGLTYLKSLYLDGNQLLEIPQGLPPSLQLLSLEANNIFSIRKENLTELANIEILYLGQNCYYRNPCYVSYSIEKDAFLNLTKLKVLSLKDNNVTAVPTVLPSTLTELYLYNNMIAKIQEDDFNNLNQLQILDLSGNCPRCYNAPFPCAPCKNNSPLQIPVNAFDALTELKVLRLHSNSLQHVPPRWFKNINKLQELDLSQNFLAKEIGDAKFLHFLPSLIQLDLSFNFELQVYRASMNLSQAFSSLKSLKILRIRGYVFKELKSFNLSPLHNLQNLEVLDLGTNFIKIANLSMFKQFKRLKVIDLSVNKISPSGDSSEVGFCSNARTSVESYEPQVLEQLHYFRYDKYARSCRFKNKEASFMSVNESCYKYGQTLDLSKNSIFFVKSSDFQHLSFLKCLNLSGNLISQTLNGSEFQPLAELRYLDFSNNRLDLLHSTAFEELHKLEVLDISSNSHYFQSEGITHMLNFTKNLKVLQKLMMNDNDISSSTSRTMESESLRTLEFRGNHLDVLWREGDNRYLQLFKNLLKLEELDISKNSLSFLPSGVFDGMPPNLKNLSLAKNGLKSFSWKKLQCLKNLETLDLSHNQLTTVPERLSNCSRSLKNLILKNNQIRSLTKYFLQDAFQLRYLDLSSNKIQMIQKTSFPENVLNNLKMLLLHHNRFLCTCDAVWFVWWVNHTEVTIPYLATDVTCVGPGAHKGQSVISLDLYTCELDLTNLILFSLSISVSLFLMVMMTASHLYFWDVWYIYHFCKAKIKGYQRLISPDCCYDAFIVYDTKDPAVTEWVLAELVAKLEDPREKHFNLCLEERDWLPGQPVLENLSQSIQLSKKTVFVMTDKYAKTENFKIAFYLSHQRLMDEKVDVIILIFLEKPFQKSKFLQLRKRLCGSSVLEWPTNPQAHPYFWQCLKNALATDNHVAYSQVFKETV
Assay: HEK293-Blue-hTLR-7 cells assay (SEAP reporter, R848 stimulation)
Format: cell-based
Settings: HEK293-Blue-hTLR7 cells, R848, 20 hrs; read-out: HEK/hTLR7 IC50
Procedure, shortened: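 HEK293-Blue-hTLR7 cells (NF-κB/AP-1-driven SEAP reporter) were stimulated with R848 alongside serially diluted compound at 1% final DMSO for 20 h at 37 °C. Supernatant SEAP was then developed with QUANTI-Blue for 2 h at 37 °C and absorbance read at 620–655 nm; antagonism is measured as reduced reporter signal.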

IC50 [µM]	SMILES
0.027	C[C@@H]1CN(c2ccc(C#N)c3ncccc23)C[C@H](CN2CCN(c3ccnc(N4CCN(C(=O)C5CCN5)CC4)n3)CC2)O1 (stereo partly drawn) [Example 34, 5-[(2S,6R)-2-[[4-[2-[4-(azetidine-2-carbonyl)piperazin-1-yl]pyrimidin-4-yl]piperazin-1-yl]methyl]-6-methyl-morpholin-4-yl]quinoline-8-carbonitrile]
0.065	C[C@@H]1CN(c2ccc(C#N)c3ncccc23)C[C@H](CN2CCN(c3cccc(N[C@H]4CNC[C@@H]4F)n3)CC2)O1 [Example 35, 5-[(2S,6R)-2-[[4-[6-[[(3S,4S)-4-fluoropyrrolidin-3-yl]amino]-2-pyridyl]piperazin-1-yl]methyl]-6-methyl-morpholin-4-yl]quinoline-8-carbonitrile]
0.028	C[C@@H]1CN(c2ccc(C#N)c3ncccc23)C[C@H](CN2CCN(c3cccc(N4CCC(N)CC4)n3)CC2)O1 [Example 36, 5-[(2S,6R)-2-[[4-[6-(4-amino-1-piperidyl)-2-pyridyl]piperazin-1-yl]methyl]-6-methyl-morpholin-4-yl]quinoline-8-carbonitrile]
0.07	C[C@@H]1CN(c2ccc(C#N)c3ncccc23)C[C@H](CN2CCN(c3cccc(N[C@H]4CNC[C@H]4F)n3)CC2)O1 [Example 37, 5-[(2S,6R)-2-[[4-[6-[[(3S,4R)-4-fluoropyrrolidin-3-yl]amino]-2-pyridyl]piperazin-1-yl]methyl]-6-methyl-morpholin-4-yl]quinoline-8-carbonitrile]
0.016	C[C@@H]1CN(c2ccc(C#N)c3ncccc23)C[C@H](CN2CCN(c3cccc(NC4CNC4)n3)CC2)O1 [Example 38]
0.035	C[C@@H]1CN(c2ccc(C#N)c3ncccc23)C[C@H](CN2CCN(c3cccc(N4CC(N)C(F)C4)n3)CC2)O1 (stereo partly drawn) [Example 40, 5-[(2S,6R)-2-[[4-[6-(3-amino-4-fluoro-pyrrolidin-1-yl)-2-pyridyl]piperazin-1-yl]methyl]-6-methyl-morpholin-4-yl]quinoline-8-carbonitrile]
0.081	C[C@@H]1CN(c2ccc(C#N)c3ncccc23)C[C@H](CN2CCN(c3cccc(N4CCNCC(O)C4)n3)CC2)O1 (stereo partly drawn) [Example 41, 5-[(2S,6R)-2-[[4-[6-(6-hydroxy-1,4-diazepan-1-yl)-2-pyridyl]piperazin-1-yl]methyl]-6-methyl-morpholin-4-yl]quinoline-8-carbonitrile]
0.023	CO[C@H]1CN(c2cccc(N3CCN(C[C@H]4CN(c5ccc(C#N)c6ncccc56)C[C@@H](C)O4)CC3)n2)C[C@H]1N [Example 42, 5-[(2S,6R)-2-[[4-[6-[(3R,4S)-3-amino-4-methoxy-pyrrolidin-1-yl]-2-pyridyl]piperazin-1-yl]methyl]-6-methyl-morpholin-4-yl]quinoline-8-carbonitrile]
0.022	COC1CN(c2ccc(N3CCN(C[C@H]4CN(c5ccc(C#N)c6ncccc56)C[C@@H](C)O4)CC3)cn2)CC1N (stereo partly drawn) [Example 43, 5-[(2S,6R)-2-[[4-[6-(3-amino-4-methoxy-pyrrolidin-1-yl)-3-pyridyl]piperazin-1-yl]methyl]-6-methyl-morpholin-4-yl]quinoline-8-carbonitrile]
0.028	C[C@@H]1CN(c2ccc(C#N)c3ncccc23)C[C@H](CN2CCN(c3ccc(N4CC(N)C(F)C4)nc3)CC2)O1 (stereo partly drawn) [Example 44, 5-[(2S,6R)-2-[[4-[6-(3-amino-4-fluoro-pyrrolidin-1-yl)-3-pyridyl]piperazin-1-yl]methyl]-6-methyl-morpholin-4-yl]quinoline-8-carbonitrile]
0.015	C[C@@H]1CN(c2ccc(C#N)c3ncccc23)C[C@H](CN2CCN(c3nc(N4CCNCC4)ncc3F)CC2)O1 [Example 45, 5-[(2S,6R)-2-[[4-(5-fluoro-2-piperazin-1-yl-pyrimidin-4-yl)piperazin-1-yl]methyl]-6-methyl-morpholin-4-yl]quinoline-8-carbonitrile]
0.018	Cc1nc(N2CCNCC2)nc(N2CCN(C[C@H]3CN(c4ccc(C#N)c5ncccc45)C[C@@H](C)O3)CC2)c1C [Example 46, 5-[(2S,6R)-2-[[4-(5,6-dimethyl-2-piperazin-1-yl-pyrimidin-4-yl)piperazin-1-yl]methyl]-6-methyl-morpholin-4-yl]quinoline-8-carbonitrile]
0.013	Cc1cc(N2CCN(C[C@H]3CN(c4ccc(C#N)c5ncccc45)C[C@@H](C)O3)CC2)nc(N2CCNCC2)n1 [Example 47, 5-[(2R,6S)-2-methyl-6-[[4-(6-methyl-2-piperazin-1-yl-pyrimidin-4-yl)piperazin-1-yl]methyl]morpholin-4-yl]quinoline-8-carbonitrile]
0.009	COc1cnc(N2CCNCC2)nc1N1CCN(C[C@H]2CN(c3ccc(C#N)c4ncccc34)C[C@@H](C)O2)CC1 [Example 48, 5-[(2S,6R)-2-[[4-(5-methoxy-2-piperazin-1-yl-pyrimidin-4-yl)piperazin-1-yl]methyl]-6-methyl-morpholin-4-yl]quinoline-8-carbonitrile]
0.029	C[C@@H]1CN(c2ccc(C#N)c3ncccc23)C[C@H](CN2CCN(c3nc(N4CCNCC4)nc4ccccc34)CC2)O1 [Example 49, 5-[(2R,6S)-2-methyl-6-[[4-(2-piperazin-1-ylquinazolin-4-yl)piperazin-1-yl]methyl]morpholin-4-yl]quinoline-8-carbonitrile]
0.016	C[C@@H]1CN(c2ccc(C#N)c3ncccc23)C[C@H](CN2CCN(c3nc(N4CCNCC4)ncc3C#N)CC2)O1 [Example 50, 5-[(2S,6R)-2-[[4-(5-cyano-2-piperazin-1-yl-pyrimidin-4-yl)piperazin-1-yl]methyl]-6-methyl-morpholin-4-yl]quinoline-8-carbonitrile]
0.028	C[C@@H]1CN(c2ccc(C#N)c3ncccc23)C[C@H](CN2CCN(c3ncc(C#N)c(N4CCNCC4)n3)CC2)O1 [Example 51, 5-[(2S,6R)-2-[[4-(5-cyano-4-piperazin-1-yl-pyrimidin-2-yl)piperazin-1-yl]methyl]-6-methyl-morpholin-4-yl]quinoline-8-carbonitrile]
0.014	Cc1cc(N2CCN(C[C@H]3CN(c4ccc(C#N)c5ncccc45)C[C@@H](C)O3)CC2)nc(N2C[C@@H](N)[C@@H](F)C2)n1 [Example 55, 5-[(2S,6R)-2-[[4-[2-[(3R,4S)-3-amino-4-fluoro-pyrrolidin-1-yl]-6-methyl-pyrimidin-4-yl]piperazin-1-yl]methyl]-6-methyl-morpholin-4-yl]quinoline-8-carbonitrile]
0.056	Cc1cc(N2CCN(C[C@H]3CN(c4ccc(C#N)c5ncccc45)C[C@@H](C)O3)CC2)nc(N2CCOCC(N)C2)n1 (stereo partly drawn) [Example 56, 5-[(2S,6R)-2-[[4-[2-(6-amino-1,4-oxazepan-4-yl)-6-methyl-pyrimidin-4-yl]piperazin-1-yl]methyl]-6-methyl-morpholin-4-yl]quinoline-8-carbonitrile]
0.027	Cc1cc(N2CCN(C[C@H]3CN(c4ccc(C#N)c5ncccc45)C[C@@H](C)O3)CC2)nc(NC2CNCC2C#N)n1 (stereo partly drawn) [Example 57, 5-[(2S,6R)-2-[[4-[2-[(4-cyanopyrrolidin-3-yl)amino]-6-methyl-pyrimidin-4-yl]piperazin-1-yl]methyl]-6-methyl-morpholin-4-yl]quinoline-8-carbonitrile]
0.03	Cc1cc(N2CCN(C[C@H]3CN(c4ccc(C#N)c5ncccc45)C[C@@H](C)O3)CC2)nc(N2C[C@@H]3COC[C@@H](C2)N3)n1 [Example 58, 5-[(2R,6S)-2-methyl-6-[[4-[6-methyl-2-[(1R,5R)-3-oxa-7,9-diazabicyclo[3.3.1]nonan-7-yl]pyrimidin-4-yl]piperazin-1-yl]methyl]morpholin-4-yl]quinoline-8-carbonitrile]
0.011	CO[C@H]1CN(c2nc(C)cc(N3CCN(C[C@H]4CN(c5ccc(C#N)c6ncccc56)C[C@@H](C)O4)CC3)n2)C[C@H]1N [Example 60, 5-[(2R,6S)-2-methyl-6-[[4-[6-methyl-2-[cis-3-amino-4-methoxy-pyrrolidin-1-yl]pyrimidin-4-yl]piperazin-1-yl]methyl]morpholin-4-yl]quinoline-8-carbonitrile]
0.008	Cc1cc(N2CCN(C[C@H]3CN(c4ccc(C#N)c5ncccc45)C[C@@H](C)O3)CC2)nc(N2CC3(CNCCO3)C2)n1 [Example 61, 5-[(2R,6S)-2-methyl-6-[[4-[6-methyl-2-(5-oxa-2,8-diazaspiro[3.5]nonan-2-yl)pyrimidin-4-yl]piperazin-1-yl]methyl]morpholin-4-yl]quinoline-8-carbonitrile]
